Measured values as given in the supplement of paper PMC10307832.

What was measured:
Experiment in all cases: relative viability (nuclei count vs DMSO), 5 days (fraction); higher = more cells survive
201T = test system: 201T
Procedure, shortened: (§1)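 One day after seeding in 1536-well plates, lung cancer cell lines were dosed by pin tool. Dosing was either single-drug or a fixed anchor-drug dose plus five library-drug doses (not always all listed) in √10 steps. After 5 days, nuclei were stained in one fix-and-stain step and counted on 4× images, and relative viability is the nuclei count of treated wells over that of vehicle wells, given as the median of duplicate plates.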

BEN = test system: BEN
Procedure, shortened: as §1

EMC-BAC-2 = test system: EMC-BAC-2
Procedure, shortened: as §1

HARA = test system: HARA
Procedure, shortened: as §1

HCC-44 = test system: HCC-44
Procedure, shortened: as §1

LCLC-103H = test system: LCLC-103H
Procedure, shortened: as §1

LOU-NH91 = test system: LOU-NH91
Procedure, shortened: as §1

NCI-H1395 = test system: NCI-H1395
Procedure, shortened: as §1

NCI-H1993 = test system: NCI-H1993
Procedure, shortened: as §1

NCI-H2023 = test system: NCI-H2023
Procedure, shortened: as §1

NCI-H2087 = test system: NCI-H2087
Procedure, shortened: as §1

NCI-H2126 = test system: NCI-H2126
Procedure, shortened: as §1

NCI-H2347 = test system: NCI-H2347
Procedure, shortened: as §1

NCI-H23 = test system: NCI-H23
Procedure, shortened: as §1

NCI-H3122 = test system: NCI-H3122
Procedure, shortened: as §1

NCI-H441 = test system: NCI-H441
Procedure, shortened: as §1

NCI-H596 = test system: NCI-H596
Procedure, shortened: as §1

NCI-H647 = test system: NCI-H647
Procedure, shortened: as §1

NCI-H650 = test system: NCI-H650
Procedure, shortened: as §1

NCI-H727 = test system: NCI-H727
Procedure, shortened: as §1

NCI-H838 = test system: NCI-H838
Procedure, shortened: as §1

COc1cc2nccc(Oc3ccc(NC(=O)Nc4cc(C)on4)c(Cl)c3)c2cc1OC [Tivozanib] + C[C@]1(O)C[C@@H](c2nc(-c3ccc4ccc(-c5ccccc5)nc4c3)c3c(N)nccn32)C1 [Linsitinib] (partner 1 µM) gave a relative viability (201T; first compound 0.005 µM) of 1.1, a relative viability (201T; first compound 0.01581 µM) of 0.984 and a relative viability (201T; first compound 0.05 µM) of 1.06. For the same compound, the relative viability (201T; first compound 0.1581 µM) was 0.937, the relative viability (201T; first compound 0.5 µM) was 1.02 and the relative viability (BEN; first compound 0.005 µM) was 0.995. For the same compound, the relative viability (BEN; first compound 0.01581 µM) was 0.871, the relative viability (BEN; first compound 0.05 µM) was 0.984 and the relative viability (BEN; first compound 0.5 µM) was 0.912. The relative viability (EMC-BAC-2; first compound 0.005 µM) was 0.847, the relative viability (EMC-BAC-2; first compound 0.01581 µM) was 0.787 and the relative viability (EMC-BAC-2; first compound 0.05 µM) was 0.844. For the same compound, the relative viability (EMC-BAC-2; first compound 0.1581 µM) was 0.782, the relative viability (EMC-BAC-2; first compound 0.5 µM) was 0.821 and the relative viability (HARA; first compound 0.005 µM) was 0.915. It also gave a relative viability (HARA; first compound 0.01581 µM) of 0.838, a relative viability (HARA; first compound 0.05 µM) of 1.11 and a relative viability (HARA; first compound 0.1581 µM) of 1.01. It also gave a relative viability (HARA; first compound 0.5 µM) of 0.99, a relative viability (HCC-44; first compound 0.005 µM) of 0.66 and a relative viability (HCC-44; first compound 0.01581 µM) of 0.687. It also gave a relative viability (HCC-44; first compound 0.05 µM) of 0.641, a relative viability (HCC-44; first compound 0.1581 µM) of 0.679 and a relative viability (HCC-44; first compound 0.5 µM) of 0.685. It also gave a relative viability (LCLC-103H; first compound 0.005 µM) of 1.01, a relative viability (LCLC-103H; first compound 0.01581 µM) of 0.959 and a relative viability (LCLC-103H; first compound 0.05 µM) of 1.07. For the same compound, the relative viability (LCLC-103H; first compound 0.1581 µM) was 1.21, the relative viability (LCLC-103H; first compound 0.5 µM) was 1.12 and the relative viability (LOU-NH91; first compound 0.005 µM) was 0.934. The relative viability (LOU-NH91; first compound 0.01581 µM) was 0.941, the relative viability (LOU-NH91; first compound 0.05 µM) was 0.981 and the relative viability (LOU-NH91; first compound 0.1581 µM) was 0.933. It also gave a relative viability (LOU-NH91; first compound 0.5 µM) of 1, a relative viability (NCI-H1395; first compound 0.005 µM) of 0.99 and a relative viability (NCI-H1395; first compound 0.01581 µM) of 1.1. It also gave a relative viability (NCI-H1395; first compound 0.05 µM) of 1.26, a relative viability (NCI-H1395; first compound 0.1581 µM) of 1.09 and a relative viability (NCI-H1395; first compound 0.5 µM) of 0.827. It also gave a relative viability (NCI-H1993; first compound 0.005 µM) of 0.698, a relative viability (NCI-H1993; first compound 0.01581 µM) of 0.777 and a relative viability (NCI-H1993; first compound 0.05 µM) of 0.79. For the same compound, the relative viability (NCI-H1993; first compound 0.1581 µM) was 0.638, the relative viability (NCI-H1993; first compound 0.5 µM) was 0.758 and the relative viability (NCI-H2023; first compound 0.005 µM) was 0.612. For the same compound, the relative viability (NCI-H2023; first compound 0.01581 µM) was 0.669, the relative viability (NCI-H2023; first compound 0.05 µM) was 0.761 and the relative viability (NCI-H2023; first compound 0.1581 µM) was 0.671. For the same compound, the relative viability (NCI-H2023; first compound 0.5 µM) was 0.715, the relative viability (NCI-H2087; first compound 0.005 µM) was 0.928 and the relative viability (NCI-H2087; first compound 0.01581 µM) was 0.922. For the same compound, the relative viability (NCI-H2087; first compound 0.05 µM) was 0.926, the relative viability (NCI-H2087; first compound 0.1581 µM) was 1.04 and the relative viability (NCI-H2087; first compound 0.5 µM) was 0.81. For the same compound, the relative viability (NCI-H2126; first compound 0.005 µM) was 0.651, the relative viability (NCI-H2126; first compound 0.01581 µM) was 0.697 and the relative viability (NCI-H2126; first compound 0.05 µM) was 0.734. For the same compound, the relative viability (NCI-H2126; first compound 0.1581 µM) was 0.52, the relative viability (NCI-H2126; first compound 0.5 µM) was 0.747 and the relative viability (NCI-H2347; first compound 0.005 µM) was 0.711. The relative viability (NCI-H2347; first compound 0.01581 µM) was 0.897, the relative viability (NCI-H2347; first compound 0.05 µM) was 0.966 and the relative viability (NCI-H2347; first compound 0.1581 µM) was 1.1. The relative viability (NCI-H2347; first compound 0.5 µM) was 0.92, the relative viability (NCI-H23; first compound 0.005 µM) was 0.521 and the relative viability (NCI-H23; first compound 0.01581 µM) was 0.534. It also gave a relative viability (NCI-H23; first compound 0.05 µM) of 0.64, a relative viability (NCI-H23; first compound 0.1581 µM) of 0.317 and a relative viability (NCI-H23; first compound 0.5 µM) of 0.534. It also gave a relative viability (NCI-H3122; first compound 0.005 µM) of 1.1, a relative viability (NCI-H3122; first compound 0.01581 µM) of 1.04 and a relative viability (NCI-H3122; first compound 0.05 µM) of 1. For the same compound, the relative viability (NCI-H3122; first compound 0.1581 µM) was 1.19, the relative viability (NCI-H3122; first compound 0.5 µM) was 1.06 and the relative viability (NCI-H441; first compound 0.005 µM) was 0.588. The relative viability (NCI-H441; first compound 0.01581 µM) was 0.56, the relative viability (NCI-H441; first compound 0.05 µM) was 0.559 and the relative viability (NCI-H441; first compound 0.1581 µM) was 0.481. The relative viability (NCI-H441; first compound 0.5 µM) was 0.559, the relative viability (NCI-H596; first compound 0.005 µM) was 1.1 and the relative viability (NCI-H596; first compound 0.01581 µM) was 1.03. It also gave a relative viability (NCI-H596; first compound 0.05 µM) of 0.953, a relative viability (NCI-H596; first compound 0.1581 µM) of 0.952 and a relative viability (NCI-H596; first compound 0.5 µM) of 1.01. The relative viability (NCI-H647; first compound 0.005 µM) was 1.08, the relative viability (NCI-H647; first compound 0.01581 µM) was 1.09 and the relative viability (NCI-H647; first compound 0.05 µM) was 1.26. For the same compound, the relative viability (NCI-H647; first compound 0.1581 µM) was 1.21, the relative viability (NCI-H647; first compound 0.5 µM) was 1.18 and the relative viability (NCI-H650; first compound 0.005 µM) was 0.671. The relative viability (NCI-H650; first compound 0.01581 µM) was 0.992, the relative viability (NCI-H650; first compound 0.05 µM) was 0.859 and the relative viability (NCI-H650; first compound 0.1581 µM) was 0.736. The relative viability (NCI-H650; first compound 0.5 µM) was 0.542, the relative viability (NCI-H727; first compound 0.005 µM) was 0.304 and the relative viability (NCI-H727; first compound 0.01581 µM) was 0.256. For the same compound, the relative viability (NCI-H727; first compound 0.05 µM) was 0.244, the relative viability (NCI-H727; first compound 0.5 µM) was 0.357 and the relative viability (NCI-H838; first compound 0.005 µM) was 0.963. For the same compound, the relative viability (NCI-H838; first compound 0.01581 µM) was 1.04, the relative viability (NCI-H838; first compound 0.05 µM) was 1.11 and the relative viability (NCI-H838; first compound 0.5 µM) was 0.942.
